Laboratory results taken from patent publication US20020006954A1, “Desmethyl tocopherols for preventing or slowing degenerative neurological diseases” (Oklahoma Medical Research Foundation, priority 2000, published 2002).
Like-named read-outs stand apart in the source and are kept apart here. Each block holds one compound with its values, some of them ahead of it.

Experiments:
[1] = system: α-ketoglutarate dehydrogenase (αKGDH); assay: Protection of αKGDH activity in rat brain mitochondria exposed to SIN-1; type: biochemical
Procedure: FIG. 5 is a graph showing rat brain mitochondria were exposed to 0.4 mM SIN-1 for 1 H after addition of tocopherol. (.) α-toc; (▪) γ-toc. The scale bars labeled [α]norm and [γ]norm indicate the normal endogenous quantities of α-toc and γ-toc, respectively, in human brain.
Mitochondria were isolated from adult rat brain then sonicated briefly in the presence of either αT or γT, or an ethanol vehicle. Mitochondria were then exposed to SIN-1, which generates NO and superoxide simultaneously at a known rate (7). Combination of NO and superoxide yields ONOO^− in situ (discussed above). Enzyme activity is destroyed by peroxynitrite and superoxide but not by NO (19).

[2] = cited from earlier work; for effect of αT supplementation on systemic γT: oral supplementation
[3] = cited from earlier work; for increase of own plasma tocopherol level above baseline: rats, 100 mg/kg/day for 10 days
occlusive thrombus = settings: rats, cited from earlier work; for delay of time to occlusive thrombus: 29% FeCl3 patch on abdominal aorta
[4] = system: Primary cortical rat neurons; assay: Neurotoxicity assay, cortical neurons exposed to SNP, LDH release; type: cell-based; settings: SNP 10 μM, 24 hours
Procedure: Cerebrocortical neurons were exposed to the indicated concentration of SNP for 24 hours. Viability was assessed by release of lactate dehydrogenase (LDH) by nonviable cells.
γ-Tocopherol was further assessed for protective ability in a neurotoxicity assay where nitrative stress was imposed. […] Media was removed and cells were then washed and medium was replaced with fresh, tocopherol-free medium.

Alzheimer's Disease = settings: one clinical study; cited from earlier work
systemic lipid oxidation = settings: rats fed tocopherol two weeks after iron-dextran; cited from earlier work
C3H/10T½ fibroblasts = settings: methylcholanthrene-treated C3H/10T½ fibroblasts; cited from earlier work
platelet aggregation = settings: rats, 100 mg/kg/day for 10 days; cited from earlier work
[5] = liposomes exposed to ONOO−; cited from earlier work
endothelial cells = settings: cited from earlier work
superoxide dismutase = settings: rats; cited from earlier work
[6] = rat brain mitochondria, 400 μM SIN-1, 1 h

- decrease of αKGDH activity ([1]; 400 μM SIN-1, one hour, rat brain mitochondria): approximately 50%
SMILES: Nc1c[n+](N2CCOCC2)no1 [SIN-1, reference compound]

SMILES: Cc1c(C)c2c(c(C)c1O)CC[C@@](C)(CCC[C@H](C)CCC[C@H](C)CCCC(C)C)O2 [αT, alpha tocopherol, reference compound]
- absorption by the gut ([2]; in vivo): absorbed equally well
- effect of αT supplementation on systemic γT [2]: decreases systemic γT concentration
- effect of αT supplementation on systemic γT ([2]; listed as α-tocopherol): depletes the human body of γ-tocopherol
- increase of own plasma tocopherol level above baseline [3]: 2 fold
- delay of time to occlusive thrombus (occlusive thrombus; 100 mg/kg/day for 10 days): 25%
- concentration offering as much protection as 50-100 nM of γT ([1]; 400 μM SIN-1): 1 to 10 µM
- tocopherol concentration of maximal protection of αKGDH [1, 6]: about 1 μM
- protection of neurons from SNP toxicity (LDH release) ([4]; 10 μM tocopherol): ineffective
- effect on progression of Alzheimer's Disease (Alzheimer's Disease): decreases the progression of Alzheimer's Disease (AD) marginally

- concentration offering as much protection as 1-10 μM of αT ([1]; 400 μM SIN-1): 50 to 100 nM
- protection of αKGDH in side-by-side comparison ([1]; at all concentrations tested): more protective than αT
- protection of αKGDH relative to the corresponding concentration of αT ([1]; concentrations near 100 nM, 400 μM SIN-1): approximately 5 times
- maximal protection of αKGDH relative to maximal protection by αT [1, 6]: approximately 2.5 times
- tocopherol concentration of maximal protection of αKGDH [1, 6]: about 1 μM
SMILES: Cc1c(O)cc2c(c1C)O[C@](C)(CCC[C@H](C)CCC[C@H](C)CCCC(C)C)CC2 [γT, gamma tocopherol]
- absorption by the gut ([2]; in vivo): absorbed equally well
- packaging into lipoproteins ([2]; in vivo): less effectively than αT
- effectiveness at inhibiting systemic lipid oxidation relative to αT (systemic lipid oxidation): approximately 35%
- inhibition of neoplastic transformation relative to αT (C3H/10T½ fibroblasts): 4 fold
- inhibition of platelet aggregation kinetics relative to αT supplementation (platelet aggregation): 2 fold
- increase of own plasma tocopherol level above baseline [3]: 6 fold
- plasma γT concentration as percent of the γT concentration (so in the source) ([3]; γT supplemented rats): ≤ 10%
- inhibition of lipid hydroperoxide formation relative to αT [5]: twice as effective
- delay of time to occlusive thrombus (occlusive thrombus; 100 mg/kg/day for 10 days): 65%
- inhibition of iron-induced lipid peroxidation and occlusive thrombus (occlusive thrombus; 100 mg/kg/day for 10 days): significantly more effective than αT supplementation
- potency relative to αT at inhibition of thrombogenic correlates, referred to plasma tocopherol concentrations (occlusive thrombus): 20-30 times
- incorporation into endothelial cells (endothelial cells): more rapidly than is αT
- protection of neurons from SNP toxicity (LDH release) ([4]; 200 nM tocopherol): significantly protected
- superoxide dismutase activity in aortas compared to the αT treated group (superoxide dismutase): increased significantly
